Laboratory results as given in patent publication US11053248B2, “[1,2,4]triazolo[1,5-a]pyrimidine compounds as PDE2 inhibitors” (Janssen Pharmaceutica NV, priority 2016, dated 2021).

Assays:
hPDE2A = target: T1, hPDE2A (Homo sapiens, UniProt O00408); experiment: In vitro assay PDE2A (SPA, 3H-cGMP); format: biochemical
T1 construct: made in house; host or cells: Sf9 insect cells (baculovirus)
Procedure, shortened: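 Sf9-expressed, Ni-sepharose-purified enzyme in 50 mM Tris pH 7.8, 8.3 mM MgCl2, 1.7 mM EGTA with 10 μM cGMP plus 0.01 μCi 3H-cGMP (final), 1% DMSO. Reaction 45 min at room temperature; SPA bead radioactivity counted as cpm, blanks without enzyme, controls with DMSO instead of compound.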

hPDE10A2 = hPDE10A2 (Homo sapiens, UniProt Q9Y233); experiment: biochemical
mossy fiber synapse = experiment: Effect on synaptic transmission: weak HFS-induced LTP, hippocampal slices (MEA); format: cell-based, rat
From the text: Effect of Test Compounds on Synaptic Transmission Critical Reagents
Sucrose dissection buffer contained (in mM) sucrose (150), NaCl (40), KCl (4), NaH2PO4.H2O (0.3), MgCl.6H2O (7), NaHCO3 (26), CaCl2.2H2O (0.5), D-glucose (10), equilibrated with 95% O2 and 5% CO2 gas mixture. Artificial cerebrospinal fluid (ACSF) used during equilibration and recording contained (in mM): NaCl (124), KCl (2.7), NaH2PO4.H2O (1.25), MgSO4.7H2O (1.3), NaHCO3 (26), CaCl2.2H2O (2), D-glucose (10), Ascorbic acid (2), equilibrated with 95% O2 and 5% CO2 gas mixture. CNQX and Kynurenic acid were prepared in ACSF at a 50 μM and 1 mM concentration respectively. […] All reagents were from Sigma-Aldrich, unless otherwise indicated. […]
All data were recorded with a MEA set-up commercially available from MultiChannel Systems MCS GmbH (Reutlingen, Germany) composed of a 4-channel stimulus generator and a 60-channels amplifier head-stage connected to a 60-channels A/D card. […]
Extracellular field potential recordings. […] All data were recorded with a MEA set-up commercially available from MultiChannel Systems MCS GmbH (Reutlingen, Germany). Two adjacent electrodes of the chip were selected to stimulate the mossy fibres in the hilar region of the dentate gyrus and the fEPSP was recorded the terminal zone area of the CA3 region of the hippocampus. […]

T1 sequence (O00408 whole entry): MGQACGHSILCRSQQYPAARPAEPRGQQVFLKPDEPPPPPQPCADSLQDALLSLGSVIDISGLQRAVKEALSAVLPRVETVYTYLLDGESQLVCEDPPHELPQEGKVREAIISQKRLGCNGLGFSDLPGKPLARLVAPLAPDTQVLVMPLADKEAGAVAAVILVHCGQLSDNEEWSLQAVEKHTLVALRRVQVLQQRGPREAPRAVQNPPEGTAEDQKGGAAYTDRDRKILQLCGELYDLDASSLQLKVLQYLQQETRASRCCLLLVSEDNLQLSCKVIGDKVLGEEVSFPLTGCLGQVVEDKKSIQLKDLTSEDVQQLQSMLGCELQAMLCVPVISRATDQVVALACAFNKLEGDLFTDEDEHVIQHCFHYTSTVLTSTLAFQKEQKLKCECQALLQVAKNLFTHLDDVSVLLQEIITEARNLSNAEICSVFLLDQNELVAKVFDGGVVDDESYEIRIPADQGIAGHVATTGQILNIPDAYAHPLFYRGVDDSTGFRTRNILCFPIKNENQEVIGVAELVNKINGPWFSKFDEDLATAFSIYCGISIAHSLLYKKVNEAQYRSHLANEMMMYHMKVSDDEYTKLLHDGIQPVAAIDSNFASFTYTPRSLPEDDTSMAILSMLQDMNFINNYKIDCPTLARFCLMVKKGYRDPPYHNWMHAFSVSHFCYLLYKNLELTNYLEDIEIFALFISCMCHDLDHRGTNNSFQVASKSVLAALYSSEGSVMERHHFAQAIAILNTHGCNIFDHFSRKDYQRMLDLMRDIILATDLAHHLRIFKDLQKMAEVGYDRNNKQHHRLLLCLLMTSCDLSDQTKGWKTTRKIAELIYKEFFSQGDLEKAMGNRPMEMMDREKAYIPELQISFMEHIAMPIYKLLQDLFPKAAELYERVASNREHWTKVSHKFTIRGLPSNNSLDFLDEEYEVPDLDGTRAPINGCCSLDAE
Sequence of hPDE10A2 (Q9Y233 267-1055): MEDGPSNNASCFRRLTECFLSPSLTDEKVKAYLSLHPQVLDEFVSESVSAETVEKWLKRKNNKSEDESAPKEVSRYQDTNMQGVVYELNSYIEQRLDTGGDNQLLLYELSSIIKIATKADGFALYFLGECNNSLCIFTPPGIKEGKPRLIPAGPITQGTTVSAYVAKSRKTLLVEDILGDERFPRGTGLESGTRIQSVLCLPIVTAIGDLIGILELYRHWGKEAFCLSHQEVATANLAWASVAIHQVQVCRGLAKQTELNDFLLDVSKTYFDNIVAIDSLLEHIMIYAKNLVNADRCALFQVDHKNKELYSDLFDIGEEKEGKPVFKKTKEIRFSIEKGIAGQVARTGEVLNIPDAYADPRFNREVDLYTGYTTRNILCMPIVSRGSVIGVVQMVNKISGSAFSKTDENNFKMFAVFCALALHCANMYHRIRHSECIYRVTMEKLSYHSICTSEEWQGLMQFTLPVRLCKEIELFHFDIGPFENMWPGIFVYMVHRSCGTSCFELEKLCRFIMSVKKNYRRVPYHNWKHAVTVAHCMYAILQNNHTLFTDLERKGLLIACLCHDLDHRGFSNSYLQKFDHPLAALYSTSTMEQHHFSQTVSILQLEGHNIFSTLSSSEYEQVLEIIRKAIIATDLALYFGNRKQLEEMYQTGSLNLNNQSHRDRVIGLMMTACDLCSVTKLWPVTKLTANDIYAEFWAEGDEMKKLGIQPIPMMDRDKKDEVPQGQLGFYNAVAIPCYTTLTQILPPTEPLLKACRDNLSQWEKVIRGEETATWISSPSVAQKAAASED

With `C[C@@H]1CCN(c2nccc3ccc(Br)cc23)C[C@H]1c1cc(C(F)F)nc2ncnn12` [Compound 1] as the molecule, how does the IC50 (hPDE2A; 10 μM cGMP substrate, read-out: hPDE2A pIC50 (converted)) read?
The IC50 was 2.24 nM.

And the Emax (hPDE2A; read-out: hPDE2A Emax)?
Its Emax is 96%.

What about the IC50 (hPDE10A2; 60 nM cAMP substrate, read-out: hPDE10A2 pIC50 (converted)) of the same molecule?
Its IC50 is 550 nM.

And the Emax (hPDE10A2; read-out: hPDE10A2 Emax)?
The Emax was 98%.

What about the “penetration to the tissue” value (mossy fiber synapse; hippocampal slice, reported, in words) of the same molecule?
The value was “poor”.

What about the “effect on weak HFS-induction of long term potentiation (LTP)” value (mossy fiber synapse; mossy fiber synapse, hippocampal slices of male Sprague-Dawley rats, FIG. 1) of the same molecule?
Its value is “did not facilitate the induction of LTP”.

What about the melting point of the same molecule?
Its melting point is 129.91 °C.
